What was measured:
Type in all cases: biochemical
Details in all cases: 100 µM
[1] = biological target: His250Ala SARS-CoV-2 Nsp15 (Severe acute respiratory syndrome coronavirus 2, UniProt P0DTD1, H6701A)
[2] = biological target: Ser294Ala SARS-CoV-2 Nsp15 (Severe acute respiratory syndrome coronavirus 2, UniProt P0DTD1, S6745A)
[3] = biological target: Tyr343Ala SARS-CoV-2 Nsp15 (Severe acute respiratory syndrome coronavirus 2, UniProt P0DTD1, Y6794A)
[4] = biological target: Lys345Ala SARS-CoV-2 Nsp15 (Severe acute respiratory syndrome coronavirus 2, UniProt P0DTD1, K6796A)

Measured: residual activity retained

O=C1NC(=S)SC1=CC=Cc1ccnc2ccccc12 [KCO237, 5-(3-quinolin-4-yl-allylidene)-2-thioxo-thiazolidine-4-one]
approximately 50%: all assays above

From publication PMC12303054, “First-in-class inhibitors of Nsp15 endoribonuclease of SARS-CoV-2: Modeling, synthesis, and enzymatic assay of thiazolidinedione and rhodanine analogs” (The Journal of Biological Chemistry, 2025)
